Measured values reported in ChEMBL document CHEMBL5505983, “Design, synthesis, and molecular modeling studies of novel 2-quinolone-1,2,3-triazole-α-aminophosphonates hybrids as dual antiviral and antibacterial agents” (Eur J Med Chem, 2024).
In brackets after ≈: the same amount, converted by molar mass.

Columns and labels:
Staphylococcus aureus [1] = test: Antibacterial activity against Staphylococcus aureus; assay type: functional
Pseudomonas aeruginosa [2] = test: Antibacterial activity against Pseudomonas aeruginosa; assay type: functional
Chikungunya virus = test: Antiviral activity against CHIKV infected in African green monkey Vero A cells assessed as inhibition of cytopathic effect by microscopy based analysis; assay type: functional, organism-based
Zika virus = test: Antiviral activity against Zika virus infected in african green monkey Vero E6 cells assessed as inhibition of cytopathic effect by microscopy based analysis; assay type: functional, organism-based; details: Vero C1008
Pseudomonas aeruginosa [3] = test: Ratio of MBC to MIC for Pseudomonas aeruginosa CIP A22; assay type: functional
Staphylococcus aureus [4] = test: Bactericidal activity against Staphylococcus aureus CIP 54127; assay type: functional
Pseudomonas aeruginosa [5] = test: Antibacterial activity against Pseudomonas aeruginosa CIP A22 assessed as reduction in bacterial growth by micro-broth dilution method; assay type: functional
Enterovirus A71 = test: Antiviral activity against human EV71 infected in human RD cells assessed as inhibition of cytopathic effect by microscopy based analysis; assay type: functional, organism-based; details: Enterovirus A
[6] = Cytotoxicity against African green monkey Vero A cells; assay type: toxicity, cell-based; details: chlorocebus sabaeus
Escherichia coli [7] = test: Bactericidal activity against Escherichia coli CIP 53154; assay type: functional
[8] = Selectivity index, ratio of CC50 for human RD cells to IC50 for human EV71 infected in human RD cells; assay type: toxicity, cell-based; details: read-out: Ratio CC50/IC50
Escherichia coli [9] = test: Antibacterial activity against Escherichia coli CIP 53154 assessed as reduction in bacterial growth by micro-broth dilution method; assay type: functional
Human rhinovirus sp. [10] = test: Antiviral activity against Human rhinovirus B14 infected in human HeLa-RH cells assessed as inhibition of cytopathic effect by microscopy based analysis; assay type: functional, organism-based
Escherichia coli [11] = test: Ratio of MBC to MIC for Escherichia coli CIP 53154; assay type: functional
Enterococcus faecalis [12] = test: Antibacterial activity against Enterococcus faecalis assessed as reduction in bacterial growth by micro-broth dilution method; assay type: functional
[13] = Cytotoxicity against human HeLa-RH cells; assay type: toxicity, cell-based
Enterococcus faecalis [14] = test: Bactericidal activity against Enterococcus faecalis; assay type: functional
Staphylococcus aureus [15] = test: Ratio of MBC to MIC for Staphylococcus aureus CIP 54127; assay type: functional
Enterococcus faecalis [16] = test: Ratio of MBC to MIC for Enterococcus faecalis; assay type: functional
[17] = Cytotoxicity against African green monkey Vero E6 cells; assay type: toxicity, cell-based, Vero C1008; details: chlorocebus sabaeus
Staphylococcus aureus [18] = test: Antibacterial activity against Staphylococcus aureus CIP 54127 assessed as reduction in bacterial growth by micro-broth dilution method; assay type: functional
Human rhinovirus sp. [19] = test: Antiviral activity against Human rhinovirus A2 infected in human HeLa-RH cells assessed as inhibition of cytopathic effect by microscopy based analysis; assay type: functional, organism-based
Pseudomonas aeruginosa [20] = test: Bactericidal activity against Pseudomonas aeruginosa CIP A22; assay type: functional
Yellow fever virus = test: Antiviral activity against Yellow fever virus infected in human Huh-7 cells assessed as inhibition of cytopathic effect by microscopy based analysis; assay type: functional, organism-based
[21] = Cytotoxicity against human RD cells; assay type: toxicity, cell-based
[22] = Cytotoxicity against human Huh-7 cells; assay type: toxicity, cell-based
SARS-CoV-2 = test: Antiviral activity against SARS-CoV-2 HCoV-19/Egypt/NRC-03/2020 infected in African green monkey Vero E6 cells assessed as inhibition of virus induced cytopathic effect pre-infected with virus for 1 hr followed by compound addition and measured after 72 hrs by crystal violet staining based analysis; assay type: functional, organism-based; details: Severe acute respiratory syndrome coronavirus 2, HCoV-19/Egypt/NRC-03/2020, Vero C1008
[23] = Selectivity index, ratio of CC50 for human Huh-7 cells to IC50 for Yellow fever virus infected in human Huh-7 cells; assay type: toxicity, cell-based; details: read-out: Ratio CC50/IC50
[24] = Selectivity index, ratio of CC50 for African green monkey Vero E6 cells to IC50 for Zika virus infected in african green monkey Vero E6 cells; assay type: toxicity; details: read-out: Ratio CC50/IC50
[25] = Selectivity index, ratio of CC50 for human HeLa-RH cells to IC50 for Human rhinovirus A2 infected in human HeLa-RH cells; assay type: toxicity, cell-based; details: read-out: Ratio CC50/IC50
[26] = Selectivity index, ratio of CC50 for human HeLa-RH cells to IC50 for Human rhinovirus B14 infected in human HeLa-RH cells; assay type: toxicity, cell-based; details: read-out: Ratio CC50/IC50
[27] = Selectivity index, ratio of CC50 for African green monkey Vero A cells to IC50 for CHIKV infected in African green monkey Vero A cells; assay type: toxicity; details: read-out: Ratio CC50/IC50

Row | SMILES | IC50 (Chikungunya virus) | IC50 (Zika virus) | Ratio (Pseudomonas aeruginosa [3]) | MBC (Staphylococcus aureus [4]) | MIC (Pseudomonas aeruginosa [5]) | IC50 (Enterovirus A71) | CC50 [6] | MBC (Escherichia coli [7]) | MIC (Escherichia coli [9]) | IC50 (Human rhinovirus sp. [10]) | Ratio (Escherichia coli [11]) | MIC (Enterococcus faecalis [12]) | CC50 [13] | MBC (Enterococcus faecalis [14]) | Ratio (Staphylococcus aureus [15]) | CC50 [17] | IC50 (Human rhinovirus sp. [19]) | IC50 (Yellow fever virus) | CC50 [21] | CC50 [22] | other results
1 | COC(=O)C(NC(=O)c1ccccc1)n1cc(Cn2c(=O)cc(C(=O)N[C@H](C)C(=O)OC)c3ccccc32)nn1 (stereo partly specified) |  |  |  |  |  |  |  |  |  |  |  |  |  |  |  |  |  |  |  |  | MIC (Staphylococcus aureus [1]): 39 µg/mL (≈ 71.4 µM); MIC (Pseudomonas aeruginosa [2]): 78 µg/mL (≈ 143 µM)
2 | Cc1cc(=O)n(Cc2cn(Cc3ccc(O)c(C=O)c3)nn2)c2ccc(F)cc12 | > 100 µM | > 100 µM | 2.01 | 3190 µM (≈ 1250 µg/mL) | 3190 µM (≈ 1250 µg/mL) | 29.9 µM | > 100 µM | 6370 µM (≈ 2500 µg/mL) | 6370 µM (≈ 2500 µg/mL) | > 100 µM | 1 | 200 µM (≈ 78.5 µg/mL) | 14.5 µM | 400 µM (≈ 157 µg/mL) | 1 | 55 µM | > 1.23 µM | > 100 µM | 43 µM | 27.8 µM | selectivity ratio [8]: 1.44; Ratio (Enterococcus faecalis [16]): 2; MIC (Staphylococcus aureus [18]): 3190 µM (≈ 1250 µg/mL); MBC (Pseudomonas aeruginosa [20]): 3190 µM (≈ 1250 µg/mL)
3 | CCOC(=O)/C=C/[C@H](C[C@@H]1CCNC1=O)NC(=O)[C@@H](CC(=O)[C@@H](NC(=O)c1cc(C)on1)C(C)C)Cc1ccc(F)cc1 [RUPINTRIVIR] |  |  |  |  |  | 1.87 µM |  |  |  |  |  |  |  |  |  |  |  |  | > 100 µM |  | selectivity ratio [8]: > 53.5
4 | Fc1ccc2nc(C(F)(F)F)cc(OCc3cn(-c4ccccc4Cl)nn3)c2c1 |  |  |  |  |  |  |  |  |  |  |  |  |  |  |  |  |  |  |  |  | IC50 (SARS-CoV-2): 60 µM
5 | C[C@@]1(O)[C@H](O)[C@@H](CO)O[C@H]1n1ccc2c(N)ncnc21 [BETA-2'-C-METHYL-7-DEAZA-ADENOSINE] |  | 20 µM |  |  |  |  |  |  |  |  |  |  |  |  |  | > 100 µM |  | 16.3 µM |  | 50 µM | selectivity ratio [23]: 3.07; selectivity ratio [24]: > 5
6 | CCOP(=O)(OCC)C(Nc1ccccc1Cl)c1cc(Cn2cc(Cn3c(=O)cc(C)c4cc(Br)ccc43)nn2)ccc1O (stereo unspecified) | > 100 µM | 71.5 µM | 4.05 | 440 µM (≈ 308 µg/mL) | 1780 µM (≈ 1250 µg/mL) | > 100 µM | 7.58 µM | 440 µM (≈ 308 µg/mL) | 440 µM (≈ 308 µg/mL) | > 33.3 µM | 1 | 60 µM (≈ 42.1 µg/mL) | 9.88 µM | 60 µM (≈ 42.1 µg/mL) | 1 | > 100 µM | > 0.41 µM | 9.91 µM | > 100 µM | 20 µM | selectivity ratio [23]: 2.02; Ratio (Enterococcus faecalis [16]): 1; selectivity ratio [24]: > 1.4; MIC (Staphylococcus aureus [18]): 440 µM (≈ 308 µg/mL); MBC (Pseudomonas aeruginosa [20]): 1780 µM (≈ 1250 µg/mL)
7 | Cc1cc(CCCOc2c(C)cc(-c3noc(C(F)(F)F)n3)cc2C)on1 [PLECONARIL] |  |  |  |  |  |  |  |  |  | 0.2 µM |  |  | > 100 µM |  |  |  | 0.44 µM |  |  |  | selectivity ratio [25]: > 227; selectivity ratio [26]: > 500
8 | Cc1cc(=O)n(Cc2cn(Cc3ccc(O)c(C=O)c3)nn2)c2ccc(Br)cc12 | 98.5 µM | > 100 µM | 1 | 11000 µM (≈ 5000 µg/mL) | 2760 µM (≈ 1250 µg/mL) | 33.3 µM | > 100 µM | 11000 µM (≈ 5000 µg/mL) | 5520 µM (≈ 2500 µg/mL) | > 100 µM | 2 | 340 µM (≈ 154 µg/mL) | 8.61 µM | 340 µM (≈ 154 µg/mL) | 1 | 52.7 µM | > 1.23 µM | > 100 µM | 44.1 µM | 29.6 µM | selectivity ratio [27]: > 1.02; selectivity ratio [8]: 1.33; Ratio (Enterococcus faecalis [16]): 1; MIC (Staphylococcus aureus [18]): 11000 µM (≈ 5000 µg/mL); MBC (Pseudomonas aeruginosa [20]): 2760 µM (≈ 1250 µg/mL)
9 | CCOP(=O)(OCC)C(Nc1ccccc1)c1cc(Cn2cc(Cn3c(=O)cc(C)c4cc(Br)ccc43)nn2)ccc1O (stereo unspecified) | 40 µM | > 100 µM | 1.99 | 240 µM (≈ 160 µg/mL) | 3750 µM (≈ 2500 µg/mL) | > 100 µM | > 100 µM | 1880 µM (≈ 1250 µg/mL) | 950 µM (≈ 633 µg/mL) | 41.1 µM | 1.98 | 60 µM (≈ 40 µg/mL) | > 100 µM | 120 µM (≈ 80 µg/mL) | 1 | > 100 µM | > 1.23 µM | > 100 µM | > 100 µM | 52 µM | selectivity ratio [27]: > 2.5; Ratio (Enterococcus faecalis [16]): 2; MIC (Staphylococcus aureus [18]): 240 µM (≈ 160 µg/mL); MBC (Pseudomonas aeruginosa [20]): 3750 µM (≈ 2500 µg/mL); selectivity ratio [26]: > 2.43
